The values that follow come from US20080045535A1, “Prokineticin 2 receptor antagonists” (priority 2005, published 2008).

The target in the assay is T1, HEK 293 GPR73 (prokineticin 1 receptor) expressing cells (Homo sapiens, UniProt Q8TCW9).
T1 construct: expressed in transfected cells; host or cells: HEK 293
Kind of assay: PK1 functional assay: screening for PK1 antagonists on the FLIPR (calcium fluorescence). The assay is classed as cell-based. The following applies: HEK 293 GPR73 cells; for inhibition at 10 µM: HEK293, compound at 10 μM, read-out: Ca^2+ Mobilization % Inh @10 μM; for inhibition at 10 µM / Ca^2+ Mobilization % Inh @10 μM: multiple values = repeat tests; for IC50: PK1 ligand at EC50, multiple values = repeat tests, read-out: Ca^2+ Mobilization IC50; for Ca^2+ Mobilization % Inh @10 μM: compound at 10 μM. Here is the method:
At a time of 24 h prior to running the assay, in cell culture media (DMEM containing high Glucose and L-glutamine, 10% FBS, 1% Pen/Streptomycin, 1% Sodium Pyruvate, 20 mM HEPES, Zeocin 200 mg/L), 100 μL of 1.3*10^6/ml HEK 293 GPR73 (prokineticin 1 receptor) expressing cells were plated in a 96 well poly-d-lysine coated plate (Costar), and incubated at 37 C and 5% CO2. On the day in which the assay was run, the media was removed and 200 μL of 5× Calcium Plus Dye (Molecular Devices) which was previously resuspended with 200 mL of assay buffer [HBSS w/Ca^2+ and Mg^2+ w/o phenol red, 20 mM HEPES, 0.1% BSA, 10 mL probenecid (710 mg probenecid in 5 mL of 1N NaOH, to which was then added 5 mL HBSS containing 20 mM HEPES)] was added to each well of the 96-well plate. The plate was incubated at 37 C and 5% CO2 for 30 min in dark. The plate was removed and allowed to reach RT for 15 min in the dark. The assay was then run on the FLIPR. […] Baseline is described as the amount of relative fluorescence read when buffer alone is added to cells. Baseline was subtracted from all wells. Percent of control was calculated as follows:
(Baseline subtracted well value is divided by baseline subtracted max value)*100.
Percent inhibition is 100 minus the percent of control value.
IC50 values were calculated using GraphPad Prism.
Table 2 includes data generated from the PK1 functional assay described in Example 2.

Molecules are shown by their SMILES. “And” between values parts separate entries of the source, which are not always exact repeats. Identical values can stand only once.

For orientation: IC50 means the concentration at which inhibition is half-maximal.

T1 sequence (Q8TCW9 whole entry): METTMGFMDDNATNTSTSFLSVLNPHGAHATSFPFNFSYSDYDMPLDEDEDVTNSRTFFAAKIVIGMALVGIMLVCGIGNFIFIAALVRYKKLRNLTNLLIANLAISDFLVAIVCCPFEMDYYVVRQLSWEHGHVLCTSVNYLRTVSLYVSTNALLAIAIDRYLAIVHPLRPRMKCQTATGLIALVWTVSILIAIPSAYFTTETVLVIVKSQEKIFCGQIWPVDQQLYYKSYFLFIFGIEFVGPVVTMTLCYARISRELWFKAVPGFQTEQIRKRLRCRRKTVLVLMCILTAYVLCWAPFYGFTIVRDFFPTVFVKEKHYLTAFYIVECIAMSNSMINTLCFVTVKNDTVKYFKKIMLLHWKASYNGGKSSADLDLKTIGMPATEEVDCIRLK

With `COc1ccc(Cn2c(N[C@@H]3CCCC[C@@H]3NC(=N)N)nc(=O)n(Cc3ccc(Cl)c(Cl)c3)c2=O)cc1` (racemic) [Cpd 42], the inhibition at 10 µM came to 92% and the IC50 was determined as 281 nM.

`NC(N)=NCCNc1nc(=O)n(Cc2ccccc2)c(=O)n1Cc1ccc(F)cc1` [Cpd 1]: the inhibition at 10 µM came out at 30% and the IC50 is > 10000 nM.

Consider `COc1ccc(Cn2c(NCCNC(=N)N)nc(=O)n(Cc3ccccc3)c2=O)cc1` [Cpd 2], for which the inhibition at 10 µM worked out at 92%; the IC50 is 125 nM and 363 nM and 336 nM and 927 nM. Besides, the “Ca^2+ Mobilization % Inh @10 μM” value (10 µM) was 85% and 74% and 87%.

With `COC(=O)c1ccc(Cn2c(NCCNC(=N)N)nc(=O)n(Cc3ccccc3)c2=O)cc1` [Cpd 3], the IC50 was 4960 nM and the “Ca^2+ Mobilization % Inh @10 μM” value was determined as 52%.

With `COc1ccc(Cn2c(NCCNC(=N)N)nc(=O)n(CCc3ccccc3)c2=O)cc1` [Cpd 4], the inhibition at 10 µM is 71% and the IC50 came to 2500 nM.

For `CCCCn1c(=O)nc(NCCNC(=N)N)n(Cc2ccc(OC)cc2)c1=O` [Cpd 5], the inhibition at 10 µM stood at 67% and the IC50 was 2180 nM.

With `COc1ccc(Cn2c(NCCNC(=N)N)nc(=O)n(Cc3ccco3)c2=O)cc1` [Cpd 6], the inhibition at 10 µM is 59% and the IC50 was found to be 2590 nM.

As for `N=C(N)NCCNc1nc(=O)n(Cc2ccccc2)c(=O)n1Cc1cccc(C(F)(F)F)c1` [Cpd 7], the inhibition at 10 µM is 52% and the half-maximal inhibitory concentration (IC50) is > 10000 nM.

On to `CC(C)(C)c1ccc(Cn2c(NCCNC(=N)N)nc(=O)n(Cc3ccccc3)c2=O)cc1` [Cpd 8], for which the inhibition at 10 µM is 64% and the IC50 worked out at 3850 nM.

For `N=C(N)NCCNc1nc(=O)n(Cc2ccccc2)c(=O)n1Cc1ccc([N+](=O)[O-])cc1` [Cpd 9], the half-maximal inhibitory concentration (IC50) is > 10000 nM and the “Ca^2+ Mobilization % Inh @10 μM” value was 35%.

As to `COc1ccc(Cn2c(NCCONC(=N)N)nc(=O)n(Cc3ccccc3)c2=O)cc1` [Cpd 10], the IC50 is > 10000 nM and the “Ca^2+ Mobilization % Inh @10 μM” value was 33%.

For the molecule `N=C(N)NCCNc1nc(=O)n(Cc2ccccc2)c(=O)n1Cc1ccncc1` [Cpd 11], the inhibition at 10 µM worked out at 32% and the IC50 is > 10000 nM.

On to `CCOc1ccc(Cn2c(NCCNC(=N)N)nc(=O)n(Cc3ccccc3)c2=O)cc1` [Cpd 12], for which the inhibition at 10 µM was determined as 97%; the IC50 is 34 nM and 82 nM and 247 nM. In addition, the “Ca^2+ Mobilization % Inh @10 μM” value (10 µM) is 96% and 94% and 90%.

As to `N=C(N)NCCNc1nc(=O)n(Cc2ccccc2)c(=O)n1Cc1ccc(OC(F)F)cc1` [Cpd 13], the inhibition at 10 µM worked out at 92%; the IC50 was 104 nM and 256 nM. In addition, the “Ca^2+ Mobilization % Inh @10 μM” value (10 µM) is listed as 91%.

As to `N=C(N)NCCNc1nc(=O)n(Cc2ccccc2)c(=O)n1Cc1ccc(C(F)(F)F)cc1` [Cpd 15], the inhibition at 10 µM was 55% and the concentration for half-maximal inhibition (IC50) came out at 6110 nM.

Take `COc1ccc(Cn2c(NCCNC(=N)N)nc(=O)n(Cc3ccccc3F)c2=O)cc1` [Cpd 16]: the inhibition at 10 µM was 77% and the IC50 came to 836 nM.

Take `COc1ccc(Cn2c(NCCNC(=N)N)nc(=O)n(Cc3ccc(F)cc3)c2=O)cc1` [Cpd 17, N-{2-[5-(4-Fluoro-benzyl)-1-(4-methoxy-benzyl)-4,6-dioxo-1,4,5,6-tetrahydro-[1,3,5]triazin-2-ylamino]-ethyl}-guanidine]: the inhibition at 10 µM is 100%; the IC50 is 14 nM and 33 nM and 87 nM. Also, the “Ca^2+ Mobilization % Inh @10 μM” value (10 µM) is 99% and 97%.

As for `COc1ccc(Cn2c(NCCNC(=N)N)nc(=O)n(Cc3ccc(Cl)c(Cl)c3)c2=O)cc1` [Cpd 18], the inhibition at 10 µM turned out to be 98%; the half-inhibitory concentration (IC50) was 7 nM and 28 nM and 41 nM and 22 nM and 54 nM. Where the note is “10 µM”, the “Ca^2+ Mobilization % Inh @10 μM” value was 100% and 101% and 99%.

For the molecule `N=C(N)NCCNc1nc(=O)n(Cc2ccccc2)c(=O)n1Cc1ccc(OC(F)(F)F)cc1` [Cpd 19], the inhibition at 10 µM stood at 81% and the concentration for half-maximal inhibition (IC50) worked out at 862 nM.

In the case of `COc1ccc(Cn2c(NCCNC(=N)N)nc(=O)n(Cc3cccc(OC)c3)c2=O)cc1` [Cpd 20], the inhibition at 10 µM stood at 61% and the IC50 was determined as 3690 nM.

`COc1ccc(Cn2c(NCCNC(=N)N)nc(=O)n(Cc3ccccc3OC)c2=O)cc1` [Cpd 21]: the inhibition at 10 µM was 43% and the 50% inhibitory concentration (IC50) was > 10000 nM.

For the molecule `N=C(N)NCCNc1nc(=O)n(Cc2ccccc2)c(=O)n1Cc1ccc(C(N)=O)cc1` [Cpd 22], the inhibition at 10 µM came to 80% and the IC50 was determined as 947 nM.

`CC(=O)Nc1ccc(Cn2c(NCCNC(=N)N)nc(=O)n(Cc3ccccc3)c2=O)cc1` [Cpd 23]: the inhibition at 10 µM was 74% and the IC50 turned out to be 1250 nM.

For the molecule `CCOc1ccc(Cn2c(NCCNC(=N)N)nc(=O)n(Cc3ccc(F)cc3)c2=O)cc1` [Cpd 24], the inhibition at 10 µM stood at 99% and the IC50 worked out at 41 nM.

`COc1ccc(Cn2c(NCCNC(=N)NC#N)nc(=O)n(Cc3ccc(Cl)c(Cl)c3)c2=O)cc1` [Cpd 28, N-{2-[5-(3,4-Dichloro-benzyl)-1-(4-methoxy-benzyl)-4,6-dioxo-1,4,5,6-tetrahydro-[1,3,5]triazin-2-ylamino]-ethyl}-N′-cyano-guanidine]: the inhibition at 10 µM is 101% and the IC50 stood at 710 nM.

In the case of `CCOc1ccc(Cn2c(NCCNC(=N)N)nc(=O)n(Cc3ccc(Cl)c(Cl)c3)c2=O)cc1` [Cpd 29], the inhibition at 10 µM is 101%; the IC50 was 42 nM and 47 nM. Also, the “Ca^2+ Mobilization % Inh @10 μM” value (10 µM) is reported as 102%.

Regarding `COc1ccc(Cn2c(NCCNC(=N)N)nc(=O)n(Cc3ccc(Cl)cc3)c2=O)cc1` [Cpd 30], the inhibition at 10 µM turned out to be 101%; the IC50 is 9 nM and 19 nM. Moreover, the “Ca^2+ Mobilization % Inh @10 μM” value (10 µM) worked out at 103%.

Take `COc1ccc(Cn2c(NCCNC(=N)N)nc(=O)n(Cc3ccc(OC)cc3)c2=O)cc1` [Cpd 31]: the inhibition at 10 µM was 101%; the concentration for half-maximal inhibition (IC50) is 9 nM and 21 nM. Moreover, the “Ca^2+ Mobilization % Inh @10 μM” value (10 µM) turned out to be 102%.

With `COc1ccc(Cn2c(NCCCCNC(=N)N)nc(=O)n(Cc3ccc(Cl)c(Cl)c3)c2=O)cc1` [Cpd 32], the inhibition at 10 µM was 88%; the IC50 was 601 nM and 781 nM. In addition, the “Ca^2+ Mobilization % Inh @10 μM” value (10 µM) is on record as 86%.

As to `COc1ccc(CCn2c(NCCNC(=N)N)nc(=O)n(Cc3ccc(F)cc3)c2=O)cc1` [Cpd 33], the inhibition at 10 µM worked out at 66% and the IC50 worked out at 2860 nM.

Turning to `N=C(N)NCCNc1nc(=O)n(Cc2ccc(Cl)c(Cl)c2)c(=O)n1Cc1ccc(OC2CCCC2)cc1` [Cpd 36], the inhibition at 10 µM worked out at 77% and the IC50 came out at 1320 nM.

On to `CSc1ccc(Cn2c(NCCNC(=N)N)nc(=O)n(Cc3ccc(Cl)c(Cl)c3)c2=O)cc1` [Cpd 37], for which the inhibition at 10 µM is 98%; the IC50 was 38 nM and 201 nM and 326 nM. For the same molecule, the “Ca^2+ Mobilization % Inh @10 μM” value (10 µM) is 100% and 98% and 99%.

Regarding `CCc1ccc(Cn2c(NCCNC(=N)N)nc(=O)n(Cc3ccc(Cl)c(Cl)c3)c2=O)cc1` [Cpd 38], the inhibition at 10 µM worked out at 98%; the IC50 is 55 nM and 178 nM and 194 nM. For the same molecule, the “Ca^2+ Mobilization % Inh @10 μM” value (10 µM) was 94% and 98%.

As for `COc1ccc(Cn2c(NCCNC(=N)N)nc(=O)n(Cc3cccc(Cl)c3)c2=O)cc1` [Cpd 39], the inhibition at 10 µM was 81% and the IC50 was determined as 909 nM.

With `N=C(N)NCCNc1nc(=O)n(Cc2ccc(Cl)c(Cl)c2)c(=O)n1Cc1ccc(OC(F)(F)F)cc1` [Cpd 40], the inhibition at 10 µM was found to be 98% and the IC50 was 248 nM.

As to `N=C(N)NCCNc1nc(=O)n(Cc2ccc(Cl)c(Cl)c2)c(=O)n1Cc1ccc(OC(F)F)cc1` [Cpd 41], the inhibition at 10 µM was 101%; the 50% inhibitory concentration (IC50) is 27 nM and 47 nM and 64 nM. Further, the “Ca^2+ Mobilization % Inh @10 μM” value (10 µM) was 100% and 99%.

For the molecule `COc1ccc(Cn2c(N[C@H]3CCCC[C@@H]3NC(=N)N)nc(=O)n(Cc3ccc(Cl)c(Cl)c3)c2=O)cc1` [Cpd 43], the inhibition at 10 µM turned out to be 31% and the IC50 is > 10000 nM.

As for `COc1ccc(Cn2c(NCCNC(=N)N)nc(=O)n(Cc3ccc(SC)cc3)c2=O)cc1` [Cpd 45], the inhibition at 10 µM came out at 103% and the IC50 worked out at 18 nM.

Take `CCc1ccc(Cn2c(=O)nc(NCCNC(=N)N)n(Cc3ccc(OC)cc3)c2=O)cc1` [Cpd 46, N-{2-[5-(4-Ethyl-benzyl)-1-(4-methoxy-benzyl)-4,6-dioxo-1,4,5,6-tetrahydro-[1,3,5]triazin-2-ylamino]-ethyl}-guanidine]: the inhibition at 10 µM turned out to be 101% and the IC50 came to 58 nM.

For `COc1ccc(Cn2c(NCCNC3=NCC(=O)N3)nc(=O)n(Cc3ccc(Cl)c(Cl)c3)c2=O)cc1` [Cpd 48, 3-(3,4-Dichloro-benzyl)-1-(4-methoxy-benzyl)-6-[2-(5-oxo-4,5-dihydro-1H-imidazol-2-ylamino)-ethylamino]-1H-[1,3,5]triazine-2,4-dione], the inhibition at 10 µM came to 94% and the IC50 was found to be 798 nM.
